Literature values as cited in patent US20100047334A1, “PH SENSITIVE LIPOSOME COMPOSITIONS FOR CONTROLLING SURFACE TOPOGRAPHY AND BINDING REACTIVITY IN FUNCTIONALIZED LIPOSOMES” (priority 2006, published 2010).
Read-outs that look alike come from different tables or passages of the source. Blank lines part the entries; values can stand above or below the molecule they belong to.

What was measured:
streptavidin = streptavidin (Streptomyces avidinii, UniProt P22629)
[1] = highest reported value; 0.1 ionic strength; dimyristoyl- and dipalmitoyl-phosphatidylserine membranes

- lateral diffusion coefficient (at 37° C. (gel)): 10^−10 cm^2/s
- lateral diffusion coefficient (in the fluid state): 5×10^−8 cm^2/s
Molecule: CCCCCCCCCCCCCCCC(=O)OC[C@H](COP(=O)([O-])OCC[N+](C)(C)C)OC(=O)CCCCCCCCCCCCCCC [DPPC lipids, 1,2-Dipalmitoyl-sn-Glycero-3-Phosphocholine]

Molecule: O=C(O)CCCC[C@@H]1SC[C@@H]2NC(=O)N[C@@H]21 [biotin]
- Ka of the biotin-streptavidin link (streptavidin): 10^13 M^−1

- apparent pKa of phosphatidylserine's carboxyl group [1]: 5.5
Molecule: phosphatidylserine
